The values that follow come from patent publication US11427548B2 (Arvinas Operations, Inc., priority 2015, dated 2022).

This test concerns the target T1, Androgen Receptor (Homo sapiens, UniProt P10275).
T1 construct: endogenous in cells; host or cells: VCaP cells
T1 sequence (P10275 1-920): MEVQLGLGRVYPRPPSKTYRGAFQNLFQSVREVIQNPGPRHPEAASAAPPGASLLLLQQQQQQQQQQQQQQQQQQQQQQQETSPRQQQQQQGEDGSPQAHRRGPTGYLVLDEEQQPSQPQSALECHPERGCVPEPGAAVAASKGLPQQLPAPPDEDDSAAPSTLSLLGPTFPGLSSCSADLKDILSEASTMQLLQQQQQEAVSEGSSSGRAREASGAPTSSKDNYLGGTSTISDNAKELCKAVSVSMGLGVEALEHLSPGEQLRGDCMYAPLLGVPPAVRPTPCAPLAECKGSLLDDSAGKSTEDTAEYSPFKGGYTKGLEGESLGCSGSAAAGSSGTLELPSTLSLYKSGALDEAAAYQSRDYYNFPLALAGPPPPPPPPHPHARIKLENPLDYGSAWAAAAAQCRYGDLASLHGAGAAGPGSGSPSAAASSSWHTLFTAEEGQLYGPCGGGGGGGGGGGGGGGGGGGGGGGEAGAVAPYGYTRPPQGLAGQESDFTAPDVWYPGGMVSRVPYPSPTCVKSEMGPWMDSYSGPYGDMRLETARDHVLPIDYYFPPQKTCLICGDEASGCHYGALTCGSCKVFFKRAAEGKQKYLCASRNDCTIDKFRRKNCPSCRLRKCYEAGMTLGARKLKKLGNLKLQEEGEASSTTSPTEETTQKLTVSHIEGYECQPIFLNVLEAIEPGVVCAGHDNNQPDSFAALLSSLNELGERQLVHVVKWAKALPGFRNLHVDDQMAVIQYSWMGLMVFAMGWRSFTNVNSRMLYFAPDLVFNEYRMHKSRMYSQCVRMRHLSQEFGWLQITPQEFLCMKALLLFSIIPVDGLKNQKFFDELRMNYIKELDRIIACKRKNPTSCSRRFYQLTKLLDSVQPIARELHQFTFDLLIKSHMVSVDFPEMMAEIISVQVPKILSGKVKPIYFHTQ
Nature of the test: Androgen Receptor ELISA assay (PathScan AR ELISA) in VCaP cells: AR degradation, Dmax and DC50. The class given is cell-based. An outline of the steps: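 VCaP cells, 30,000/well, grown ≥3 days in phenol red-free RPMI with 5% charcoal-stripped FBS; compound added in 0.1% DMSO with 0.1 nM R1881, 7 half-log doses, 24 h. Lysate AR quantified by PathScan sandwich ELISA, HRP/TMB read at 450 nm, giving DC50 and Dmax.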
On the technique in general: An ELISA detects its analyte on a solid surface through an enzyme-linked reagent.

Where [1] appears, read: read-out: VCaP DC50; concentration that caused 50% Androgen Receptor degradation, VCaP cells.
Where [2] appears, read: read-out: VCaP DC50; concentration that caused 50% Androgen Receptor degradation, VCaP cells (Table 32).

The structures appear in SMILES notation. Where two headings read alike, the source gives them in different places.

For orientation: Dmax means the largest share of the target that was removed. The term DC50 denotes the concentration giving 50% degradation. Turning to `COc1cc(N2C(=O)C(C)(C)N(c3ccc(OCCCCOCCCOCC(=O)N[C@H](C(=O)N4C[C@H](O)C[C@H]4C(=O)NCc4ccc(-c5cnco5)cc4)C(C)(C)C)c(F)c3)C2=S)ccc1C#N` [Example 49, (2S,4R)-1-[(2S)-2-{2-[3-(4-{4-[3-(4-cyano-3-methoxyphenyl)-5,5-dimethyl-4-oxo-2-sulfanylideneimidazolidin-1-yl]-2-fluorophenoxy}butoxy)propoxy]acetamido}-3,3-dimethylbutanoyl]-4-hydroxy-N-{[4-(1,3-oxazol-5-yl)phenyl]methyl}pyrrolidine-2-carboxamide], the Dmax (VCaP, highest percentage of Androgen Receptor degradation observed, VCaP cells; read-out: VCaP Dmax (%)) was 51 to 70%. Moreover, the DC50 (concentration that caused 50% Androgen Receptor degradation, VCaP cells; read-out: VCaP DC50) is less than 50 nM.
In the case of `Cn1nccc1-c1ccc(CNC(=O)[C@@H]2C[C@@H](O)CN2C(=O)[C@@H](NC(=O)COCCCOCCCCOc2ccc(N3C(=S)N(c4ccc(C#N)c(Cl)c4)C(=O)C3(C)C)cc2F)C(C)(C)C)cc1` [Example 50, (2S,4R)-1-[(2S)-2-{2-[3-(4-{4-[3-(3-chloro-4-cyanophenyl)-5,5-dimethyl-4-oxo-2-sulfanylideneimidazolidin-1-yl]-2-fluorophenoxy}butoxy)propoxy]acetamido}-3,3-dimethylbutanoyl]-4-hydroxy-N-{[4-(1-methyl-1H-pyrazol-5-yl)phenyl]methyl}pyrrolidine-2-carboxamide], the Dmax (VCaP, read-out: VCaP Dmax (%)) is greater than 71%. Under setting [1], the DC50 was less than 50 nM.
For `Cc1ncsc1-c1ccc(CNC(=O)[C@@H]2C[C@@H](O)CN2C(=O)[C@@H](NC(=O)COCCCOCCCCOc2ccc(N3C(=S)N(c4ccc(C#N)c(C(F)(F)F)c4)C(=O)C34CCN(C)CC4)cc2)C(C)(C)C)cc1` [Example 51, (2S,4R)-1-[(2S)-2-(2-{3-[4-(4-{3-[4-cyano-3-(trifluoromethyl)phenyl]-8-methyl-4-oxo-2-sulfanylidene-1,3,8-triazaspiro[4.5]decan-1-yl}phenoxy)butoxy]propoxy}acetamido)-3,3-dimethylbutanoyl]-4-hydroxy-N-{[4-(4-methyl-1,3-thiazol-5-yl)phenyl]methyl}pyrrolidine-2-carboxamide] the same measures were 26 to 50% and less than 50 nM.
For `Cc1ncsc1-c1ccc(CNC(=O)[C@@H]2C[C@@H](O)CN2C(=O)[C@@H](NC(=O)COCCCCOCCCOc2ccc(N3C(=S)N(c4ccc(C#N)c(C(F)(F)F)c4)C(=O)C3(C)C)cc2F)C(C)(C)C)cc1` [Example 53, (2S,4R)-1-[(2S)-2-(2-{4-[3-(4-{3-[4-cyano-3-(trifluoromethyl)phenyl]-5,5-dimethyl-4-oxo-2-sulfanylideneimidazolidin-1-yl}-2-fluorophenoxy)propoxy]butoxy}acetamido)-3,3-dimethylbutanoyl]-4-hydroxy-N-{[4-(4-methyl-1,3-thiazol-5-yl)phenyl]methyl}pyrrolidine-2-carboxamide] the same measures were greater than 71% and 51 to 500 nM.
For `CC(C)(C)[C@H](NC(=O)COCC#CC#CCOc1ccc(N2C(=S)N(c3ccc(C#N)c(Cl)c3)C(=O)C2(C)C)cc1F)C(=O)N1C[C@H](O)C[C@H]1C(=O)NCc1ccc(-c2cnco2)cc1` [Example 60, (2S,4R)-1-[(2S)-2-{2-[(6-{4-[3-(3-chloro-4-cyanophenyl)-5,5-dimethyl-4-oxo-2-sulfanylideneimidazolidin-1-yl]-2-fluorophenoxy}hexa-2,4-diyn-1-yl)oxy]acetamido}-3,3-dimethylbutanoyl]-4-hydroxy-N-{[4-(1,3-oxazol-5-yl)phenyl]methyl}pyrrolidine-2-carboxamide] the same measures were 51 to 70% and 51 to 500 nM.
In the case of `CC(C)(C)[C@H](NC(=O)COCC#CC#CCOc1ccc(N2C(=S)N(c3ccc(C#N)c(C(F)(F)F)c3)C(=O)C2(C)C)cc1F)C(=O)N1C[C@H](O)C[C@H]1C(=O)NCc1ccc(-c2cnco2)cc1` [Example 61, (2S,4R)-1-[(2S)-2-(2-{[6-(4-{3-[4-cyano-3-(trifluoromethyl)phenyl]-5,5-dimethyl-4-oxo-2-sulfanylideneimidazolidin-1-yl}-2-fluorophenoxy)hexa-2,4-diyn-1-yl]oxy}acetamido)-3,3-dimethylbutanoyl]-4-hydroxy-N-{[4-(1,3-oxazol-5-yl)phenyl]methyl}pyrrolidine-2-carboxamide], for the setting “VCaP, read-out: VCaP Dmax (%)”, the Dmax fell in the range of 51 to 70%. For the same compound, the DC50 under setting [1] was 51 to 500 nM.
As for `Cc1ncsc1-c1ccc(CNC(=O)[C@@H]2C[C@@H](O)CN2C(=O)[C@@H](NC(=O)CCOCCOc2ccc(-c3ccc(N4C(=S)N(c5ccc(C#N)c(C(F)(F)F)c5)C(=O)C4(C)C)cc3)cn2)C(C)(C)C)cc1` [Example 86], the Dmax (VCaP, read-out: VCaP Dmax (%)) is 26 to 50%. Moreover, under setting [2], the DC50 was less than 50 nM.
Regarding `Cc1ncsc1-c1ccc(CNC(=O)[C@@H]2C[C@@H](O)CN2C(=O)[C@@H](NC(=O)CCOCCOc2ccc(-c3ccc(N4C(=S)N(c5ccc(C#N)c(C(F)(F)F)c5)C(=O)C4(C)C)cc3)nc2)C(C)(C)C)cc1` [Example 87], for the setting “VCaP, read-out: VCaP Dmax (%)”, the Dmax is 26 to 50%. The DC50 under setting [2] was less than 50 nM.
The like results for `CC(C)(C)[C@H](NC(=O)COCCCCOc1ccc(-c2ccc(N3C(=S)N(c4ccc(C#N)c(Cl)c4)C(=O)C3(C)C)cc2)nc1)C(=O)N1C[C@H](O)C[C@H]1C(=O)NCc1ccc(-c2cnco2)cc1` [Example 89] were, in that order, greater than 71% and less than 50 nM.
For `CC(C)(C)[C@H](NC(=O)COCCCCOc1ccc(-c2ccc(N3C(=S)N(c4ccc(C#N)c(Cl)c4)C(=O)C3(C)C)cc2)cc1)C(=O)N1C[C@H](O)C[C@H]1C(=O)NCc1ccc(-c2cnco2)cc1` [Example 94, (2S,4R)-1-[(2S)-2-{2-[4-(4-{4-[3-(3-chloro-4-cyanophenyl)-5,5-dimethyl-4-oxo-2-sulfanylideneimidazolidin-1-yl]phenyl}phenoxy)butoxy]acetamido}-3,3-dimethylbutanoyl]-4-hydroxy-N-{[4-(1,3-oxazol-5-yl)phenyl]methyl}pyrrolidine-2-carboxamide], the Dmax (VCaP, read-out: VCaP Dmax (%)) is greater than 71%. For the same compound, the DC50 under setting [2] is less than 50 nM.
The like results for `Cc1ncsc1-c1ccc([C@H](C)NC(=O)[C@@H]2C[C@@H](O)CN2C(=O)[C@@H](NC(=O)COCCCCOc2ccc(-c3ccc(N4C(=S)N(c5ccc(C#N)c(C(F)(F)F)c5)C(=O)C4(C)C)cc3)cc2)C(C)(C)C)cc1` [Example 95, (2S,4R)-1-[(2S)-2-(2-{4-[4-(4-{3-[4-cyano-3-(trifluoromethyl)phenyl]-5,5-dimethyl-4-oxo-2-sulfanylideneimidazolidin-1-yl}phenyl)phenoxy]butoxy}acetamido)-3,3-dimethylbutanoyl]-4-hydroxy-N-[(1S)-1-[4-(4-methyl-1,3-thiazol-5-yl)phenyl]ethyl]pyrrolidine-2-carboxamide] were, in that order, greater than 71% and less than 50 nM.
The like results for `CC(C)(C)[C@H](NC(=O)COCCCCOc1ccc(-c2ccc(N3C(=S)N(c4ccc(C#N)c(C(F)(F)F)c4)C(=O)C3(C)C)cc2)cc1)C(=O)N1C[C@H](O)C[C@H]1C(=O)NCc1ccc(-c2cnco2)cc1` [Example 96, (2S,4R)-1-[(2S)-2-(2-{4-[4-(4-{3-[4-cyano-3-(trifluoromethyl)phenyl]-5,5-dimethyl-4-oxo-2-sulfanylideneimidazolidin-1-yl}phenyl)phenoxy]butoxy}acetamido)-3,3-dimethylbutanoyl]-4-hydroxy-N-{[4-(1,3-oxazol-5-yl)phenyl]methyl}pyrrolidine-2-carboxamide] were, in that order, 51 to 70% and less than 50 nM.
For `Cc1ncsc1-c1ccc(CNC(=O)[C@@H]2C[C@@H](O)CN2C(=O)[C@@H](NC(=O)COCCCCOc2cccc(-c3ccc(N4C(=S)N(c5ccc(C#N)c(C(F)(F)F)c5)C(=O)C4(C)C)cc3)c2)C(C)(C)C)cc1` [Example 99, (2S,4R)-1-[(2S)-2-(2-{4-[3-(4-{3-[4-cyano-3-(trifluoromethyl)phenyl]-5,5-dimethyl-4-oxo-2-sulfanylideneimidazolidin-1-yl}phenyl)phenoxy]butoxy}acetamido)-3,3-dimethylbutanoyl]-4-hydroxy-N-{[4-(4-methyl-1,3-thiazol-5-yl)phenyl]methyl}pyrrolidine-2-carboxamide] the same measures were 51 to 70% and less than 50 nM.
